Literature values, collected in publication PMC4806784 (Investigational new drugs, 2015).
Like-named read-outs stand apart in the source and are kept apart here.

Settings: 60 mg/m^2 q 3 week, cited from earlier work
[1] = chemotherapy-naïve elderly patients with advanced non-small cell lung cancer, ref a more recent trial
[2] = metastatic breast cancer, second line

In the case of `CC(=O)O[C@@]12CO[C@@H]1C[C@H](O)[C@@]1(C)C(=O)[C@H](O)C3=C(C)[C@@H](OC(=O)[C@H](O)[C@@H](NC(=O)OC(C)(C)C)c4ccccc4)C[C@@](O)([C@@H](OC(=O)c4ccccc4)[C@H]21)C3(C)C` [docetaxel], the “incidence of Grade 3 to 4 neutropenia” value [1] is given as 89%, the “incidence of febrile neutropenia” value [1] is given as 15% and the “incidence of Grade 3 to 4 neutropenia” value [2] is given as 76%. For the same compound, the “incidence of febrile neutropenia” value [2] was 5%.
